According to patent US10702504B2, “Degradation of tripartite motif-containing protein 24 (TRIM24) by conjugation of TRIM24 inhibitors with E3 ligase ligand and methods of use” (Dana-Farber Cancer Institute, Inc., priority 2016, dated 2020):

Target: PHD-bromodomain of TRIM24 (Homo sapiens (Human), UniProt O15164)
Assay: TRIM24 binding alpha assay
Conditions: Alpha Assay binding to TRIM24; compounds 50 μM to 0.002 μM
Protocol: The alpha TRIM24 binding assay is used to assess the binding of the compounds of the application. Compounds are added at various concentrations as well as a vehicle control. Compounds that bind to TRIM24 compete away the interaction between the PHD-bromodomain of TRIM24 bound to the donor bead, and the H3K23ac histone peptide bound to the acceptor bead, which causes a decrease in signal. IC50 values are calculated.
The alpha assay was used to assess the binding of the compounds of the application to TRIM24 at various concentrations. All compounds were added at concentrations from 50 μM to 0.002 μM. Compounds that bind to TRIM24 compete with the PHD-bromodomain of TRIM24 in interacting with the donor bead, and the H3K23ac histone peptide bound to the acceptor bead, which causes a decrease in signal. IC50 values were calculated by using Graphpad PRISM's log(inhibitor) vs. response—variable slope (four parameters).

PHD-bromodomain of TRIM24, sequence (O15164 824-1006): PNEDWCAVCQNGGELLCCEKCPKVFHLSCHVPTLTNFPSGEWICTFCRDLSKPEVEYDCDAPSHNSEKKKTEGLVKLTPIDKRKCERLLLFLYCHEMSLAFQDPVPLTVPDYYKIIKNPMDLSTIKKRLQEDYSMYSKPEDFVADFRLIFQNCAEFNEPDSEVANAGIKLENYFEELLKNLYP

Row | Structure (SMILES) | IC50 [nM]
1 | CCCOc1cc(OCCCCN(C)C)cc(Oc2cc3c(cc2NS(=O)(=O)c2cccc(C(=O)NCCCCCCCCNC(=O)COc4cccc5c4C(=O)N(C4CCC(=O)NC4=O)C5=O)c2)n(C)c(=O)n3C)c1 (stereo not drawn) [I-A11, 3-(N-(6-(3-(4-(dimethylamino)butoxy)-5-propoxyphenoxy)-1,3-dimethyl-2-oxo-2,3-dihydro-1H-benzo[d]imidazol-5-yl)sulfamoyl)-N-(8-(1-((2-(2,6-dioxopiperidin-3-yl)-1,3-dioxoisoindolin-4-yl)oxy)acetamido)octyl)benzamide] | < 50
2 | Cc1nc(S(=O)(=O)Nc2cc3c(cc2Oc2cccc(OCC(=O)NCCCCCCCCNC(=O)COc4cccc5c4C(=O)N(C4CCC(=O)NC4=O)C5=O)c2)n(C)c(=O)n3C)cn1C (stereo not drawn) [I-A8, 2-(3-((6-((1,2-dimethyl-1H-imidazole)-4-sulfonamido)-1,3-dimethyl-2-oxo-2,3-dihydro-1H-benzo[d]imidazol-5-yl)oxy)phenoxy)-N-(8-(2-((2-(2,6-dioxopiperidin-3-yl)-1,3-dioxoisoindolin-4-yl)oxy)acetamido)octyl)acetamide] | > 500
3 | COc1ccc(S(=O)(=O)Nc2cc3c(cc2Oc2ccc(OCC(=O)NCCCCCCCCNC(=O)COc4cccc5c4C(=O)N(C4CCC(=O)NC4=O)C5=O)cc2)n(C)c(=O)n3C)cc1OC (stereo not drawn) [I-A2, 2-(4-((6-((3,4-dimethoxyphenyl)sulfonamido)-1,3-dimethyl-2-oxo-2,3-dihydro-1H-benzo[d]imidazol-5-yl)oxy)phenoxy)-N-(8-(2-((2-(2,6-dioxopiperidin-3-yl)-1,3-dioxoisoindolin-4-yl)oxy)acetamido)octyl)acetamide] | > 500
4 | CCCOc1cccc(Oc2cc3c(cc2NS(=O)(=O)c2ccc(OC)c(OC)c2)n(C)c(=O)n3C)c1 [Cmpd D, reference compound] | < 50
5 | Cc1nc(S(=O)(=O)Nc2cc3c(cc2Oc2cccc(OCC(=O)NCCCCNC(=O)COc4cccc5c4C(=O)N(C4CCC(=O)NC4=O)C5=O)c2)n(C)c(=O)n3C)cn1C (stereo not drawn) [I-A7, 2-(3-((6-((1,2-dimethyl-1H-imidazole)-4-sulfonamido)-1,3-dimethyl-2-oxo-2,3-dihydro-1H-benzo[d]imidazol-5-yl)oxy)phenoxy)-N-(4-(2-((2-(2,6-dioxopiperidin-3-yl)-1,3-dioxoisoindolin-4-yl)oxy)acetamido)butyl)acetamide] | > 500
6 | CCCOc1cccc(Oc2cc3c(cc2NS(=O)(=O)c2cccc(C(=O)NCCCOCCOCCOCCCNC(=O)COc4cccc5c4C(=O)N(C4CCC(=O)NC4=O)C5=O)c2)n(C)c(=O)n3C)c1 (stereo not drawn) [I-A6, 3-(N-(1,3-dimethyl-2-oxo-6-(3-propoxyphenoxy)-2,3-dihydro-1H-benzo[d]imidazol-5-yl)sulfamoyl)-N-(1-((2-(2,6-dioxopiperidin-3-yl)-1,3-dioxoisoindolin-4-yl)oxy)-2-oxo-7,10,13-trioxa-3-azahexadecan-16-yl)benzamide] | < 50
7 | Cc1nc(S(=O)(=O)Nc2cc3c(cc2Oc2cccc(OCC(C)C)c2)n(C)c(=O)n3C)cn1C [Cmpd C, reference compound] | < 50
8 | CCCOc1cccc(Oc2cc3c(cc2NS(=O)(=O)c2cccc(C(=O)NCCCCNC(=O)CC45CC6CC(CC(C6)C4)C5)c2)n(C)c(=O)n3C)c1 [Cmpd E, reference compound] | 100 to 500
9 | CCCOc1cc(OCCCCN(C)C)cc(Oc2cc3c(cc2NS(=O)(=O)c2cccc(C(=O)NCCOCCOCCOCC(=O)N[C@H](C(=O)N4C[C@H](O)C[C@H]4C(=O)NCc4ccc(-c5scnc5C)cc4)C(C)(C)C)c2)n(C)c(=O)n3C)c1 [I-B4, (2S,4R)-1-((S)-15-(tert-butyl)-1-(3-(N-(6-(3-(4-(dimethylamino)butoxy)-5-propoxyphenoxy)-1,3-dimethyl-2-oxo-2,3-dihydro-H-benzo[d]imidazol-5-yl)sulfamoyl)phenyl)-1,13-dioxo-5,8,11-trioxa-2,14-diazahexadecan-16-oyl)-4-hydroxy-N-(4-(4-methylthiazol-5-yl)benzyl)pyrrolidine-2-carboxamide] | < 50
10 | Cc1nc(S(=O)(=O)Nc2cc3c(cc2Oc2cccc(OCC(=O)NCCCOCCOCCOCCCNC(=O)COc4cccc5c4C(=O)N(C4CCC(=O)NC4=O)C5=O)c2)n(C)c(=O)n3C)cn1C (stereo not drawn) [I-A9, 2-(3-((6-((1,2-dimethyl-1H-imidazole)-4-sulfonamido)-1,3-dimethyl-2-oxo-2,3-dihydro-1H-benzo[d]imidazol-5-yl)oxy)phenoxy)-N-(1-((2-(2,6-dioxopiperidin-3-yl)-1,3-dioxoisoindolin-4-yl)oxy)-2-oxo-7,10,13-trioxa-3-azahexadecan-16-yl)acetamide] | > 500
11 | CCCOc1cc(OCCCCN(C)C)cc(Oc2cc3c(cc2NS(=O)(=O)c2cccc(C(=O)NCCCCNC(=O)COc4cccc5c4C(=O)N(C4CCC(=O)NC4=O)C5=O)c2)n(C)c(=O)n3C)c1 (stereo not drawn) [I-A10, 3-(N-(6-(3-(4-(dimethylamino)butoxy)-5-propoxyphenoxy)-1,3-dimethyl-2-oxo-2,3-dihydro-1H-benzo[d]imidazol-5-yl)sulfamoyl)-N-(4-(2-((2-(2,6-dioxopiperidin-3-yl)-1,3-dioxoisoindolin-4-yl)oxy)acetamido)butyl)benzamide] | < 50
12 | COc1ccc(S(=O)(=O)Nc2cc3c(cc2Oc2cccc(OCc4ccccc4)c2)n(C)c(=O)n3C)cc1OC [Cmpd B, reference compound] | 50 to 100
13 | CCCOc1cccc(Oc2cc3c(cc2NS(=O)(=O)c2cccc(C(=O)NCCCCCCCCNC(=O)COc4cccc5c4C(=O)N(C4CCC(=O)NC4=O)C5=O)c2)n(C)c(=O)n3C)c1 (stereo not drawn) [I-A5, 3-(N-(1,3-dimethyl-2-oxo-6-(3-propoxyphenoxy)-2,3-dihydro-1H-benzo[d]imidazol-5-yl)sulfamoyl)-N-(8-(2-((2-(2,6-dioxopiperidin-3-yl)-1,3-dioxoisoindolin-4-yl)oxy)acetamido)octyl)benzamide] | 100 to 500
14 | CCCOc1cccc(Oc2cc3c(cc2NS(=O)(=O)c2cccc(C(=O)NCCOCCOCC(=O)N[C@H](C(=O)N4C[C@H](O)C[C@H]4C(=O)NCc4ccc(-c5scnc5C)cc4)C(C)(C)C)c2)n(C)c(=O)n3C)c1 [I-B2, (4R)-1-((S)-12-(tert-butyl)-1-(3-(N-(1,3-dimethyl-2-oxo-6-(3-propoxyphenoxy)-2,3-dihydro-1H-benzo[d]imidazol-5-yl)sulfamoyl)phenyl)-1,10-dioxo-5,8-dioxa-2,11-diazatridecan-13-oyl)-4-hydroxy-N-(4-(4-methylthiazol-5-yl)benzyl)pyrrolidine-2-carboxamide] | < 50
15 | CCCOc1cc(OCCCCN(C)C)cc(Oc2cc3c(cc2NS(=O)(=O)c2cccc(C(=O)NCCCOCCOCCOCCCNC(=O)COc4cccc5c4C(=O)N(C4CCC(=O)NC4=O)C5=O)c2)n(C)c(=O)n3C)c1 (stereo not drawn) [I-A12, 3-(N-(6-(3-(4-(dimethylamino)butoxy)-5-propoxyphenoxy)-1,3-dimethyl-2-oxo-2,3-dihydro-1H-benzo[d]imidazol-5-yl)sulfamoyl)-N-(1-((2-(2,6-dioxopiperidin-3-yl)-1,3-dioxoisoindolin-4-yl)oxy)-2-oxo-7,10,13-trioxa-3-azahexadecan-16-yl)benzamide] | < 50
